Assay results reported in patent US4419352A, “Pyranoquinolinones and analogs thereof” (Fisons Limited, priority 1978, dated 1983).

Tests used:
[1] = tested on: human volunteer suffering from specific allergic asthma; experiment: antigen inhalation provocation test (F E V1.0, percent protection); type: in vivo; settings: F E V1.0, after drug administration
Protocol: Clinical evaluation of the compounds was carried out using the antigen inhalation provocation test described below:
The human volunteer selected for test purposes suffered from specific allergic asthma. In this subject an asthma attack normally followed the inhalation of an antigen to which they were specifically sensitive. The degree of asthma provoked by this method can be measured by repeated examination of the air way resistance.
The antiallergic activity of a compound is estimated from the difference between the maximum percent F E V1.0 reduction following control and test provocations after drug administration conducted under identical experimental conditions.
The results of the tests are expressed as percent protection according to the formula: [formula]

anaesthatised cats = experiment: blood pressure, heart rate and cardiac output of anaesthetised cats; type: in vivo, cat
[2] = tested on: cardiovascular response to isoprenaline; experiment: cardiovascular response to isoprenaline in the cat; type: in vivo
[3] = tested on: cardiovascular response to isoprenaline; experiment: cardiovascular response to isoprenaline in the rat; type: in vivo
rats = experiment: food choice (revulsion) test in rats; type: in vivo, rat
[4] = sub-cutaneous LD50 in mice; settings: mouse, in vivo, sc
[5] = sub-cutaneous LD50 in rats; settings: rat, in vivo, sc

In the case of `CCCc1c2nc(C(=O)[O-])cc(Cl)c2cc2c(=O)cc(C(=O)[O-])oc12.[Na+].[Na+]`, the “protection against asthma provoked by antigen inhalation” value [1] is reported as “very considerable protection”, the “effect on blood pressure” value (anaesthatised cats) is reported as “without effect” and the “effect on cardiac output” value (anaesthatised cats) is reported as “without effect”. For the same compound, the “effect on heart rate” value (anaesthatised cats) was “without effect”, the “alteration of cardiovascular response to isoprenaline” value [2] was “did not alter” and the “alteration of cardiovascular response to isoprenaline” value [3] was “did not alter”. For the same compound, the “revulsion when rats choose between food source containing it and one which does not” value (rats) was “does not produce revulsion”, the LD50 [4] was greater than 2000 mg/kg and the LD50 [5] was greater than 2000 mg/kg.
